Measurements as given in the CheMixHub ionic liquid set.

Assay: xn = mol fraction of the nth substance listed

CC[NH3+].O=[N+]([O-])[O-] + CC[NH+](CC)CC.O=[N+]([O-])[O-]
101 kPa, frequency 0.00293 MHz, x2 = 0
Conditions	electrical conductivity [S/m]
293.15 K	1.93
298.15 K	2.25
313.15 K	3.37
323.15 K	4.22

101 kPa, x2 = 0
Conditions	viscosity [mPa·s]
293.15 K	43.5
298.15 K	36.5
313.15 K	22.8
323.15 K	17.6

OC[C@H]1O[C@@](CO)(O[C@H]2O[C@H](CO)[C@@H](O)[C@H](O)[C@H]2O)[C@@H](O)[C@@H]1O + CCCC[N+](C)(CCCC)CCCC.[Cl-] + O
viscosity [mPa·s], 101.3 kPa
Conditions	x1 = 0.0003585, x2 = 0	x1 = 0.0007185, x2 = 0	x1 = 0.001078, x2 = 0	x1 = 0.00144, x2 = 0	x1 = 0.001799, x2 = 0	x1 = 0.002163, x2 = 0	x1 = 0.002507, x2 = 0
293.15 K	1.016	1.038	1.059	1.081	1.094	1.112	1.133
298.15 K	0.906	0.921	0.935	0.957	0.972	0.987	1.006
303.15 K	0.807	0.817	0.83	0.847	0.861	0.878	0.891
308.15 K	0.725	0.733	0.745	0.759	0.772	0.786	0.8
313.15 K	0.657	0.664	0.674	0.683	0.697	0.71	0.721

CCCCCC[n+]1ccn(C)c1.N#C[S-] + CN1CCCC1=O
viscosity [mPa·s], 101 kPa
Conditions	x1 = 0.001079	x1 = 0.001613	x1 = 0.002068	x1 = 0.00265	x1 = 0.003379	x1 = 0.004077	x1 = 0.004588	x1 = 0.005383
288.15 K	2.143	2.148	2.155	2.162	2.168	2.173	2.182	2.186
298.15 K	1.805	1.809	1.82	1.826	1.833	1.841	1.847	1.854
308.15 K	1.567	1.576	1.585	1.593	1.6	1.613	1.619	1.624
318.15 K	1.337	1.35	1.357	1.37	1.38	1.389	1.397	1.402

CCCC(=O)O + CC(CC(C)(C)C)CP(=O)([O-])CC(C)CC(C)(C)C.CCCCCCCCCCCCCC[P+](CCCCCC)(CCCCCC)CCCCCC
Conditions	viscosity [mPa·s]
298 K, 100 kPa, x2 = 0.9022	950

CCCCCC[n+]1ccn(C)c1.N#C[S-] + [Br-].[Li+] + CN1CCCC1=O
298.15 K, 101 kPa
Conditions	viscosity [mPa·s]
x1 = 0.001485, x2 = 0.05195	3.247
x1 = 0.00149, x2 = 0.02731	2.398
x1 = 0.001549, x2 = 0.07614	4.405
x1 = 0.003034, x2 = 0.02727	2.411
x1 = 0.003327, x2 = 0.07601	4.433
x1 = 0.003386, x2 = 0.05185	3.276
x1 = 0.004842, x2 = 0.05177	3.304
x1 = 0.004935, x2 = 0.02722	2.44
x1 = 0.004954, x2 = 0.07588	4.462
x1 = 0.005883, x2 = 0.02719	2.46
x1 = 0.006254, x2 = 0.0517	3.332
x1 = 0.006429, x2 = 0.07577	4.49
x1 = 0.007608, x2 = 0.02715	2.485
x1 = 0.007678, x2 = 0.07567	4.518
x1 = 0.007769, x2 = 0.05162	3.36
x1 = 0.009204, x2 = 0.07556	4.575
x1 = 0.009231, x2 = 0.05154	3.388
x1 = 0.009463, x2 = 0.0271	2.489
x1 = 0.009859, x2 = 0.05151	3.416
x1 = 0.01038, x2 = 0.02707	2.534
x1 = 0.01063, x2 = 0.07545	4.603
x1 = 0.01211, x2 = 0.02702	2.541
x1 = 0.01221, x2 = 0.07533	4.631
x1 = 0.01242, x2 = 0.05138	3.444

c1ccsc1 + N#C[C-](C#N)C#N.OCC[n+]1ccccc1
101 kPa, x2 = 0
Conditions	viscosity [mPa·s]
303.15 K	0.58
333.15 K	0.42
348.15 K	0.364

CCCCCCCCn1cc[n+](C)c1.N#C[S-] + CN(C)C=O
viscosity [mPa·s], 101 kPa
Conditions	293.15 K	303.15 K	313.15 K	323.15 K	333.15 K	343.15 K	353.15 K	363.15 K
x1 = 0.004576	0.987	0.872	0.784	0.707	0.65	0.595	0.544	0.504
x1 = 0.007767	1.007	0.891	0.799	0.722	0.658	0.604	0.558	0.515
x1 = 0.01461	1.065	0.948	0.868	0.779	0.705	0.642	0.591	0.543
x1 = 0.02142	1.136	0.994	0.912	0.814	0.728	0.673	0.617	0.563
x1 = 0.02908	1.219	1.057	0.956	0.848	0.764	0.713	0.648	0.598
x1 = 0.03577	1.297	1.134	1.013	0.897	0.808	0.738	0.672	0.618

CC[n+]1ccn(C)c1.N#C[S-] + CC[n+]1ccn(C)c1.N#C[N-]C#N
100 kPa, x1 = 1
Conditions	electrical conductivity [S/m]	viscosity [mPa·s]
318.15 K	3.92	12.98
328.15 K	–	10.25
338.15 K	–	8.3
343.15 K	–	7.53
